Usually EC50 stands for the concentration at which the effect is half-maximal. As usually defined, the inhibition is the change of the read-out against control, counted positive when it falls.

These results are taken from patent US20050049294A1, “Methods of using [3.2.0] heterocyclic compounds and analogs thereof” (priority 2003, published 2005).

For experiment [1], the system named is p21 and p27 in HEK293 cells and HEK293 NF-κB/Luciferase reporter clone. The experiment in a line: Western blot of cell cycle regulatory proteins p21 and p27. The class given is cell-based, human. The conditions noted are these: various concentrations, preliminary results. An excerpt:
The ubiquitin-proteasome pathway is an essential proteolytic system involved in cell cycle control by regulating the degradation of cyclins and cyclin-dependent kinase (Cdk) inhibitors such as p21 and p27. Pagano, et al., Science 269:682 (1995), Kisselev, et al., Chem Biol 8:739 (2001), King, et al., Science 274:1652 (1996). Furthermore, p21 and p27 protein levels are increased in the presence of proteasome inhibitors. Fukuchi, et al., Biochim Biophys Acta 1451:206 (1999), Takeuchi, et al., Jpn J Cancer Res 93:774 (2002).
The Western blots presented in FIG. 33 were reprobed using antibodies against p21 and p27 to determine the endogenous level of each protein and anti-Tubulin antibody was used to confirm equal loading of protein.
A general note: In western blotting, separated proteins are transferred to a membrane and probed.

The subject of experiment [2] is HEK293 cells. The experiment in a line: Cell growth inhibition (resazurin, 48 hours), HEK293. Format: cell-based. The note with it: Table 2, HEK293, human embryonic kidney, read-out: EC50 (nM), mean ± SD. Background: Resazurin is reduced to fluorescent resorufin, in cell work by metabolically active cells.
Experiment [3] has as its system MIA PaCa-2 cells. Kind of experiment: Cell growth inhibition (resazurin, 48 hours), MIA PaCa-2. The class given is cell-based. The conditions noted are these: Table 2, MIA PaCa-2, human pancreatic carcinoma, read-out: EC50 (nM), mean ± SD.
Experiment [4] deals with T1, chymotrypsin-like proteasome activity in packed whole blood lysate (Mus musculus, UniProt O55234).
T1 construct: The supernatant (Packed Whole Blood Lysate, PWBL) was transferred to a fresh tube; from tissue; host or cells: packed whole blood cells of Swiss-Webster mice, hypotonic lysate
Kind of experiment: Whole blood proteasome activity (packed whole blood lysate, PWBL) of treated mice. The class given is in vivo. As for the experimental part: In brief, frozen whole blood samples were thawed on ice for one hour, and resuspended in 700 μL of ice cold 5 mM EDTA, pH 8.0 in order to lyse the cells by hypotonic shock. This represents approximately 2-3 times the volume of the packed whole blood cells. Lysis was allowed to proceed for one hour, and the cellular debris was removed by centrifuigation at 14,000×g for 10 minutes. The supernatant (Packed Whole Blood Lysate, PWBL) was transferred to a fresh tube, and the pellet discarded. Protein concentration of the PWBL was determined by BCA assay (Pierce) using BSA as a standard.
Proteasome activity was determined by measuring the hydrolysis of a fluorogenic substrate specific for the chymotrypsin-like activity of proteasomes (suc-LLVY-AMC, Bachem Cat. 1-1395). […] Hydrolysis of the substrate results in the release of free AMC, which was measured fluorometrically by using λex=390 nm and λem=460 nm. The rate of hydrolysis in this system is linear for at least one hour. The hydrolysis rate of each sample is then normalized to relative fluorescent units per milligram of protein (RFU/mg).
The vehicle control consisted of 2% DMSO in 10% solutol. […] Packed whole blood cells were collected by centrifugation, washed with PBS, and re-centrifuged. All samples were stored at −80° C. prior to the evaluation of the proteasome activity. […]

T1 sequence (O55234 60-264): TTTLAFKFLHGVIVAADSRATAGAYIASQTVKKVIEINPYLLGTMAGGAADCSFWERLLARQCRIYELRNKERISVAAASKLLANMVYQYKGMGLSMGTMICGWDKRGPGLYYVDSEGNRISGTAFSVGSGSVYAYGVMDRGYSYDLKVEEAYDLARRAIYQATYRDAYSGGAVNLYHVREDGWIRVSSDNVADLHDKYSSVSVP

Turning to `C[C@@]12OC(=O)[C@]1([C@@H](O)[C@@H]1C=CCCC1)NC(=O)[C@@H]2CCCl` [Formula II-16, Salinosporamide A], the “p21 and p27 protein levels” value in experiment [1] is reported as “elevated”. For the same molecule, the EC50 in experiment [2] worked out at 47 nM; in experiment [3], 46 nM. The “proteasomal activity in PWBL” value in experiment [4] (male Swiss-Webster mice, i.v. or oral, 90 minutes after administration (FIG. 40)) is reported as “profound decrease in proteasomal activity in PWBL”. Further, in experiment [4] (mouse, iv, 0.25 mg/kg i.v., mice, read-out: ex vivo proteasome inhibition in packed whole blood), the inhibition at […] was found to be 94 ± 3%.
